{"source": "patent US20180177184A1", "about": "“ANTIMICROBIAL, INSECTICIDAL AND ACARICIDAL SYSTEM” (UNIVERSIDAD POLITECNICA DE VALENCIA, priority 2015, published 2018)", "test_system": "Listeria innocua", "test": "Bacterial viability of Listeria innocua, 2 h incubation in tryptone soy broth, CFU counting", "assay_type": "cell-based", "settings": "L. innocua, about 10^6 CFU/ml, 37° C., concentration of vanillin", "protocol": "To that end, in vitro assays were carried out to determine the bacterial viability of Listeria innocua compared to mesoporous particles functionalized with vanillin as well as free vanillin. […] To that end, different suspensions of particles or free vanillin in culture broth (tryptone soy broth) were prepared, and the microbial inoculum was added thereto to obtain an initial population of about 10^6 CFU/ml. Said suspensions were incubated under orbital stirring (150 rpm) at 37° C. for 2 h. After said period, the serial dilutions were seeded in selective medium and incubated for 48 h, with subsequent counting of the colony forming units (CFUs) and calculation of the percentage of inhibition.", "data": [{"compound": "COc1cc(C=O)ccc1O", "note": "[free vanillin, vanillin]", "values": [{"measurement": "concentration producing complete inhibition of the microorganism", "result": 4, "unit": "mg/mL"}]}]}
